Results published in article PMC7434893 (British Journal of Cancer, 2020).
Values joined by “and” are separate entries in the source; they are usually repeats but may differ in a detail not shown here. Equal values may be shown once. Read-outs that look alike come from different tables or passages of the source.

How the values were obtained:
HT-1080 = test: 8-day growth inhibition; type: cell-based; conditions: Fibrosarcoma, HT-1080, 8-day assay
SF-295 = test: 8-day growth inhibition; type: cell-based; conditions: GBM, SF-295, 8-day assay
C3A = test: 8-day growth inhibition; type: cell-based; conditions: HCC, 8-day assay

## O=c1[nH]nc2c3c(cccc13)N=C(CN1Cc3ccccc3C1)N2 [E7449]
HT-1080
  IC50: 830 nM
50 mg (n = 3)
  Abdominal pain, treatment-related AE: 0%
  Anaemia, treatment-related AE: 33.3%
  Chromaturia, treatment-related AE: 0%
  Constipation, treatment-related AE: 33.3%
  Decreased appetite, treatment-related AE: 33.3%
  Depression, treatment-related AE: 0%
  Diarrhoea, treatment-related AE: 33.3%
  Dizziness, treatment-related AE: 0%
  Dry skin, treatment-related AE: 0%
  Dysgeusia, treatment-related AE: 0%
  Erythematous rash, treatment-related AE: 0%
  Fatigue, treatment-related AE: 33.3%
  Increased blood alkaline phosphatase, treatment-related AE: 0%
  Maculopapular rash, treatment-related AE: 0%
  Nausea, treatment-related AE: 33.3%
  Onycholysis, treatment-related AE: 0%
  Periorbital oedema, treatment-related AE: 0%
  Photosensitivity reaction, treatment-related AE: 33.3%
  Pruritus, treatment-related AE: 0%
  Skin hyperpigmentation, treatment-related AE: 0%
  Vomiting, treatment-related AE: 33.3%
50 mg cohort, 3 evaluable
  Patients with dose-limiting toxicity, n (%): 0 n (%)
100 mg (n = 3)
  Abdominal pain, treatment-related AE: 33.3%
  Anaemia, treatment-related AE: 0%
  Chromaturia, treatment-related AE: 0%
  Constipation, treatment-related AE: 33.3%
  Decreased appetite, treatment-related AE: 0%
  Depression, treatment-related AE: 33.3%
  Diarrhoea, treatment-related AE: 33.3%
  Dizziness, treatment-related AE: 0%
  Dry skin, treatment-related AE: 33.3%
  Dysgeusia, treatment-related AE: 0%
  Erythematous rash, treatment-related AE: 0%
  Fatigue, treatment-related AE: 66.7%
  Increased blood alkaline phosphatase, treatment-related AE: 0%
  Maculopapular rash, treatment-related AE: 33.3%
  Nausea, treatment-related AE: 33.3%
  Onycholysis, treatment-related AE: 0%
  Periorbital oedema, treatment-related AE: 0%
  Photosensitivity reaction, treatment-related AE: 33.3%
  Pruritus, treatment-related AE: 33.3%
  Skin hyperpigmentation, treatment-related AE: 33.3%
  Vomiting, treatment-related AE: 0%
100 mg cohort, 3 evaluable
  Patients with dose-limiting toxicity, n (%): 0 n (%)
200 mg (n = 4)
  Abdominal pain, treatment-related AE: 0%
  Anaemia, treatment-related AE: 0%
  Chromaturia, treatment-related AE: 0%
  Constipation, treatment-related AE: 0%
  Decreased appetite, treatment-related AE: 0%
  Depression, treatment-related AE: 25.0%
  Diarrhoea, treatment-related AE: 0%
  Dizziness, treatment-related AE: 0%
  Dry skin, treatment-related AE: 0%
  Dysgeusia, treatment-related AE: 0%
  Erythematous rash, treatment-related AE: 0%
  Fatigue, treatment-related AE: 0%
  Increased blood alkaline phosphatase, treatment-related AE: 0%
  Maculopapular rash, treatment-related AE: 25.0%
  Nausea, treatment-related AE: 50.0%
  Onycholysis, treatment-related AE: 0%
  Periorbital oedema, treatment-related AE: 0%
  Photosensitivity reaction, treatment-related AE: 0%
  Pruritus, treatment-related AE: 0%
  Skin hyperpigmentation, treatment-related AE: 0%
  Vomiting, treatment-related AE: 25.0%
200 mg cohort, 4 evaluable
  Patients with dose-limiting toxicity, n (%): 0 n (%)
400 mg (n = 4)
  Abdominal pain, treatment-related AE: 25.0%
  Anaemia, treatment-related AE: 0%
  Chromaturia, treatment-related AE: 50.0%
  Constipation, treatment-related AE: 0%
  Decreased appetite, treatment-related AE: 25.0%
  Depression, treatment-related AE: 50.0%
  Diarrhoea, treatment-related AE: 50.0%
  Dizziness, treatment-related AE: 0%
  Dry skin, treatment-related AE: 0%
  Dysgeusia, treatment-related AE: 0%
  Erythematous rash, treatment-related AE: 0%
  Fatigue, treatment-related AE: 75.0%
  Increased blood alkaline phosphatase, treatment-related AE: 25.0%
  Maculopapular rash, treatment-related AE: 25.0%
  Nausea, treatment-related AE: 25.0%
  Onycholysis, treatment-related AE: 25.0%
  Periorbital oedema, treatment-related AE: 25.0%
  Photosensitivity reaction, treatment-related AE: 25.0%
  Pruritus, treatment-related AE: 0%
  Skin hyperpigmentation, treatment-related AE: 0%
  Vomiting, treatment-related AE: 0%
400 mg cohort, 3 evaluable
  Patients with dose-limiting toxicity, n (%): 0 n (%)
600 mg (n = 21)
  Abdominal pain, treatment-related AE: 0%
  Anaemia, treatment-related AE: 9.5%
  Chromaturia, treatment-related AE: 66.7%
  Constipation, treatment-related AE: 9.5%
  Decreased appetite, treatment-related AE: 23.8%
  Depression, treatment-related AE: 4.8%
  Diarrhoea, treatment-related AE: 23.8%
  Dizziness, treatment-related AE: 4.8%
  Dry skin, treatment-related AE: 4.8%
  Dysgeusia, treatment-related AE: 14.3%
  Erythematous rash, treatment-related AE: 9.5%
  Fatigue, treatment-related AE: 66.7%
  Increased blood alkaline phosphatase, treatment-related AE: 14.3%
  Maculopapular rash, treatment-related AE: 33.3%
  Nausea, treatment-related AE: 33.3%
  Onycholysis, treatment-related AE: 9.5%
  Periorbital oedema, treatment-related AE: 19.0%
  Photosensitivity reaction, treatment-related AE: 23.8%
  Pruritus, treatment-related AE: 19.0%
  Skin hyperpigmentation, treatment-related AE: 9.5%
  Vomiting, treatment-related AE: 14.3%
600 mg cohort
  Dose-limiting-toxicity description: Grade 3 anaphylactic reaction
600 mg cohort, 6 evaluable
  Patients with dose-limiting toxicity, n (%): 1 (16.7) n (%)
600 mg n = 2, 800 mg n = 2
  Treatment-related grade 3 fatigue, patients: 4
800 mg (n = 6)
  Abdominal pain, treatment-related AE: 16.7%
  Anaemia, treatment-related AE: 0%
  Chromaturia, treatment-related AE: 66.7%
  Constipation, treatment-related AE: 0%
  Decreased appetite, treatment-related AE: 50.0%
  Depression, treatment-related AE: 16.7%
  Diarrhoea, treatment-related AE: 50.0%
  Dizziness, treatment-related AE: 33.3%
  Dry skin, treatment-related AE: 33.3%
  Dysgeusia, treatment-related AE: 0%
  Erythematous rash, treatment-related AE: 16.7%
  Fatigue, treatment-related AE: 100.0%
  Increased blood alkaline phosphatase, treatment-related AE: 0%
  Maculopapular rash, treatment-related AE: 16.7%
  Nausea, treatment-related AE: 33.3%
  Onycholysis, treatment-related AE: 0%
  Periorbital oedema, treatment-related AE: 0%
  Photosensitivity reaction, treatment-related AE: 33.3%
  Pruritus, treatment-related AE: 0%
  Skin hyperpigmentation, treatment-related AE: 33.3%
  Vomiting, treatment-related AE: 33.3%
800 mg cohort
  Dose-limiting-toxicity description: Grade 3 fatigue (n = 1) Grade 2 fatigue (n = 3)
800 mg cohort, 6 evaluable
  Patients with dose-limiting toxicity, n (%): 4 (66.7) n (%)
17/41, doses ≥100 mg
  Treatment-emergent AEs associated with skin rash events, patients: 41.5%
200-mg dose cohort
  Grade 4 AE (hypokalaemia, not treatment-related), patients: 1
400-mg dose cohort
  Treatment-emergent chromaturia, patients: 50.0%
600-mg dose cohort
  Treatment-emergent AEs associated with skin rash events, patients: 47.6%
  Treatment-emergent chromaturia, patients: 66.7%
800-mg dose cohort
  Treatment-emergent AEs associated with skin rash events, patients: 66.7%
  Treatment-emergent chromaturia, patients: 83.3%
Total (N = 41)
  Abdominal pain, treatment-related AE: 7.3%
  Anaemia, treatment-related AE: 7.3%
  Chromaturia, treatment-related AE: 49% and 48.8%
  Constipation, treatment-related AE: 9.8%
  Decreased appetite, treatment-related AE: 24% and 24.4%
  Depression, treatment-related AE: 14.6%
  Diarrhoea, treatment-related AE: 29% and 29.3%
  Dizziness, treatment-related AE: 7.3%
  Dry skin, treatment-related AE: 9.8%
  Dysgeusia, treatment-related AE: 7.3%
  Erythematous rash, treatment-related AE: 7.3%
  Fatigue, treatment-related AE: 63% and 63.4%
  Increased blood alkaline phosphatase, treatment-related AE: 9.8%
  Maculopapular rash, treatment-related AE: 27% and 26.8%
  Nausea, treatment-related AE: 34% and 34.1%
  Onycholysis, treatment-related AE: 7.3%
  Periorbital oedema, treatment-related AE: 12.2%
  Photosensitivity reaction, treatment-related AE: 24% and 24.4%
  Pruritus, treatment-related AE: 12.2%
  Skin hyperpigmentation, treatment-related AE: 12.2%
  Vomiting, treatment-related AE: 17.1%
All cohorts
  Grade 5 AEs: No grade 5 AEs
All cohorts, 7/41
  Grade 3 fatigue, patients: 17.1%
  Treatment discontinued due to AEs, patients: 17%
All cohorts, 21/41
  Treatment-emergent chromaturia, patients: 51.2%
All cohorts, 24/41
  Nonfatal SAEs, patients: 58.5%
All cohorts, 27 of 41 patients
  Grade 3 AEs, patients: 65.9%
All cohorts, 39 patients
  Patients with treatment-related AEs: 95.1%
At the MTD, 1/21
  Grade 1 thrombocytopenia, patients: 5%
At the MTD, 4/21
  Anaemia (≤grade 2), patients: 19%
Of the 25 evaluable patients, all dose cohorts
  Patients with DLTs: 5
oral, once daily
  Recommended phase 2 dose: 600 mg
oral, once daily, 28-day cycles
  Maximum-tolerated dose (MTD): 600 mg
SF-295
  IC50: 2600 nM
C3A
  IC50: 2540 nM
